Reference: patent publication US11970494B2, “6-heteroaryloxy benzimidazoles and azabenzimidazoles as JAK2 inhibitors” (Ajax Therapeutics, Inc., priority 2021, dated 2024)
pKd: −log10 of the molar value.

Target: T1, JAK2 (JH1 domain-catalytic, Y1007F,Y1008F) kinase (Homo sapiens, UniProt O60674, Y1007F/Y1008F)
T1 construct: made in house; host or cells: transiently transfected HEK293 cells
Experiment: JAK2 Binding Assay (JAK2 JH1 Domain Binding Assay)
Settings: JAK2 JH1 domain binding, qPCR detection; read-out: JAK2 Kd

T1 sequence (O60674 849-1124 Y1007F/Y1008F limits assumed): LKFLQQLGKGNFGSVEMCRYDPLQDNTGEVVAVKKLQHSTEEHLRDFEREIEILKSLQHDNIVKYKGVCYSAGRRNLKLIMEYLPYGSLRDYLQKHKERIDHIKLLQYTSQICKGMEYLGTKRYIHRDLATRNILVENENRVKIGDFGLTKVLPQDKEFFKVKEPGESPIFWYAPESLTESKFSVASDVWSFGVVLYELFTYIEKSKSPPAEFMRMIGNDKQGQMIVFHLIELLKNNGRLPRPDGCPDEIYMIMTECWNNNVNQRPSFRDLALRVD

| Structure (SMILES) | pKd |
| --- | --- |
| Cn1c(Nc2cc3n(n2)CCCC3(F)F)nc2ncc(Oc3ccnc(NC(=O)N4CC[C@H](O)C4)c3)c(C#N)c21 [Example I-29, (S)-N-(4-((7-cyano-2-((4,4-difluoro-4,5,6,7-tetrahydropyrazolo[1,5-a]pyridin-2-yl)amino)-1-methyl-1H-imidazo[4,5-b]pyridin-6-yl)oxy)pyridin-2-yl)-3-hydroxypyrrolidine-1-carboxamide] | 7.30 to 8.00 |
| COC(=O)Nc1cc(Oc2cnc3nc(Nc4cc(C(F)(F)F)n(C5CC6(COC6)C5)n4)n(C)c3c2C#N)ccn1 [Example I-31, Methyl(4-((2-((1-(2-oxaspiro[3.3]heptan-6-yl)-5-(trifluoromethyl)-1H-pyrazol-3-yl)amino)-7-cyano-1-methyl-1H-imidazo[4,5-b]pyridin-6-yl)oxy)pyridin-2-yl)carbamate] | 7.30 to 8.00 |
| CN1CC(OC(=O)Nc2cc(Oc3cnc4nc(Nc5cc(C(F)(F)F)cn(C)c5=O)n(C)c4c3C#N)ccn2)C1 [Example I-39, 1-Methylazetidin-3-yl(4-((7-cyano-1-methyl-2-((1-methyl-2-oxo-5-(trifluoromethyl)-1,2-dihydropyridin-3-yl)amino)-1H-imidazo[4,5-b]pyridin-6-yl)oxy)pyridin-2-yl)carbamate] | 6.00 to 7.30 |
| COC(=O)Nc1cc(Oc2cnc3nc(Nc4cc5n(n4)CCN(C)C5=O)n(C)c3c2Cl)ccn1 [Example I-40, Methyl(4-((7-chloro-1-methyl-2-((5-methyl-4-oxo-4,5,6,7-tetrahydropyrazolo[1,5-a]pyrazin-2-yl)amino)-1H-imidazo[4,5-b]pyridin-6-yl)oxy)pyridin-2-yl)carbamate] | 5.30 to 6.00 |
| COC(=O)Nc1cc(Oc2cnc3nc(Nc4cc5n(n4)CCN(C)C5=O)n(C)c3c2C#N)ccn1 [Example I-41, Methyl(4-((7-cyano-1-methyl-2-((5-methyl-4-oxo-4,5,6,7-tetrahydropyrazolo[1,5-a]pyrazin-2-yl)amino)-1H-imidazo[4,5-b]pyridin-6-yl)oxy)pyridin-2-yl)carbamate] | 6.00 to 7.30 |
| CN(C)C(=O)Nc1cc(Oc2cnc3nc(Nc4cc5n(n4)CCN(C)C5=O)n(C)c3c2Cl)ccn1 [Example I-46, 3-(4-((7-chloro-1-methyl-2-((5-methyl-4-oxo-4,5,6,7-tetrahydropyrazolo[1,5-a]pyrazin-2-yl)amino)-1H-imidazo[4,5-b]pyridin-6-yl)oxy)pyridin-2-yl)-1,1-dimethylurea] | < 5.30 |
| Cn1c(Nc2cc3n(n2)CCOC3(C)C)nc2ncc(Oc3ccnc(NC(=O)N4CCC4)c3)c(C#N)c21 [Example I-47, N-(4-((7-cyano-2-((4,4-dimethyl-6,7-dihydro-4H-pyrazolo[5,1-c][1,4]oxazin-2-yl)amino)-1-methyl-1H-imidazo[4,5-b]pyridin-6-yl)oxy)pyridin-2-yl)azetidine-1-carboxamide] | > 8.00 |
| Cn1c(Nc2cc3n(n2)CCOC3(C)C)nc2ncc(Oc3ccnc(NC(=O)O[C@H]4CCOC4)c3)c(C#N)c21 [Example I-49, (S)-Tetrahydrofuran-3-yl(4-((7-cyano-2-((4,4-dimethyl-6,7-dihydro-4H-pyrazolo[5,1-c][1,4]oxazin-2-yl)amino)-1-methyl-1H-imidazo[4,5-b]pyridin-6-yl)oxy)pyridin-2-yl)carbamate] | > 8.00 |
| [2H]C([2H])([2H])N(C(=O)Nc1cc(Oc2cnc3nc(Nc4cc(C(F)(F)F)cn(C)c4=O)n(C)c3c2C#N)ccn1)C([2H])([2H])[2H] [Example I-52, 3-(4-((7-cyano-1-methyl-2-((1-methyl-2-oxo-5-(trifluoromethyl)-1,2-dihydropyridin-3-yl)amino)-1H-imidazo[4,5-b]pyridin-6-yl)oxy)pyridin-2-yl)-1,1-bis(methyl-d3)urea] | > 8.00 |
| CN1CCn2nc(Nc3nc4ncc(Oc5ccnc(NC(=O)O[C@@H]6CCOC6)c5)c(Cl)c4n3C)cc2C1=O [Example I-53, (R)-tetrahydrofuran-3-yl(4-((7-chloro-1-methyl-2-((5-methyl-4-oxo-4,5,6,7-tetrahydropyrazolo[1,5-a]pyrazin-2-yl)amino)-1H-imidazo[4,5-b]pyridin-6-yl)oxy)pyridin-2-yl)carbamate] | < 5.30 |
| CN1CCn2nc(Nc3nc4ncc(Oc5ccnc(NC(=O)OC6COC6)c5)c(Cl)c4n3C)cc2C1=O [Example I-54, oxetan-3-yl(4-((7-chloro-1-methyl-2-((5-methyl-4-oxo-4,5,6,7-tetrahydropyrazolo[1,5-a]pyrazin-2-yl)amino)-1H-imidazo[4,5-b]pyridin-6-yl)oxy)pyridin-2-yl)carbamate] | 5.30 to 6.00 |
| CN1CCn2nc(Nc3nc4ncc(Oc5ccnc(NC(=O)O[C@H]6CCOC6)c5)c(Cl)c4n3C)cc2C1=O [Example I-55, (S)-tetrahydrofuran-3-yl(4-((7-chloro-1-methyl-2-((5-methyl-4-oxo-4,5,6,7-tetrahydropyrazolo[1,5-a]pyrazin-2-yl)amino)-1H-imidazo[4,5-b]pyridin-6-yl)oxy)pyridinyl)carbamate] | 5.30 to 6.00 |

Further lines, results first:

| pKd | Structure (SMILES) |
| --- | --- |
| > 8.00 | CNC(=O)Nc1cc(Oc2cnc3nc(Nc4cc5n(n4)CCCC5(F)F)n(C)c3c2C#N)ccn1 [Example I-27, 1-(4-((7-cyano-2-((4,4-difluoro-4,5,6,7-tetrahydropyrazolo[1,5-a]pyridin-2-yl)amino)-1-methyl-1H-imidazo[4,5-b]pyridin-6-yl)oxy)pyridin-2-yl)-3-methylurea] |
| > 8.00 | Cn1c(Nc2cc3n(n2)CCCC3(F)F)nc2ncc(Oc3ccnc(NC(=O)N4CC[C@@H](O)C4)c3)c(C#N)c21 [Example I-28, (R)-N-(4-((7-cyano-2-((4,4-difluoro-4,5,6,7-tetrahydropyrazolo[1,5-c]pyridin-2-yl)amino)-1-methyl-1H-imidazo[4,5-b]pyridin-6-yl)oxy)pyridin-2-yl)-3-hydroxypyrrolidine-1-carboxamide] |
| > 8.00 | COCCOC(=O)Nc1cc(Oc2cnc3nc(Nc4cc5n(n4)CCCC5(F)F)n(C)c3c2C#N)ccn1 [Example I-32, 2-Methoxyethyl(4-((7-cyano-2-((4,4-difluoro-4,5,6,7-tetrahydropyrazolo[1,5-a]pyridin-2-yl)amino)-1-methyl-1H-imidazo[4,5-b]pyridin-6-yl)oxy)pyridin-2-yl)carbamate] |
| > 8.00 | CO[C@@H]1CCN(C(=O)Nc2cc(Oc3cnc4nc(Nc5cc6n(n5)CCCC6(F)F)n(C)c4c3C#N)ccn2)C1 [Example I-33] |
| > 8.00 | CO[C@H]1CCN(C(=O)Nc2cc(Oc3cnc4nc(Nc5cc6n(n5)CCCC6(F)F)n(C)c4c3C#N)ccn2)C1 [Example I-34, (S)-N-(4-((7-cyano-2-((4,4-difluoro-4,5,6,7-tetrahydropyrazolo[1,5-a]pyridin-2-yl)amino)-1-methyl-1H-imidazo[4,5-b]pyridin-6-yl)oxy)pyridin-2-yl)-3-methoxypyrrolidine-1-carboxamide] |
| > 8.00 | Cn1c(Nc2cc3n(n2)CCCC3(F)F)nc2ncc(Oc3ccnc(NC(=O)N4CC(O)C4)c3)c(C#N)c21 [Example I-35, N-(4-((7-cyano-2-((4,4-difluoro-4,5,6,7-tetrahydropyrazolo[1,5-a]pyridin-2-yl)amino)-1-methyl-1H-imidazo[4,5-b]pyridin-6-yl)oxy)pyridin-2-yl)-3-hydroxyazetidine-1-carboxamide] |
| > 8.00 | Cn1c(Nc2cc3n(n2)CCCC3(F)F)nc2ncc(Oc3ccnc(NC(=O)O[C@H]4CCOC4)c3)c(C#N)c21 [Example I-36, (S)-tetrahydrofuran-3-yl(4-((7-cyano-2-((4,4-difluoro-4,5,6,7-tetrahydropyrazolo[1,5-a]pyridin-2-yl)amino)-1-methyl-1H-imidazo[4,5-b]pyridinyl)oxy)pyridin-2-yl)carbamate] |
| > 8.00 | Cn1c(Nc2cc3n(n2)CCCC3(F)F)nc2ncc(Oc3ccnc(NC(=O)O[C@@H]4CCOC4)c3)c(C#N)c21 [Example I-37, (R)-tetrahydrofuran-3-yl(4-((7-cyano-2-((4,4-difluoro-4,5,6,7-tetrahydropyrazolo[1,5-a]pyridin-2-yl)amino)-1-methyl-1H-imidazo[4,5-b]pyridin-6-yl)oxy)pyridin-2-yl)carbamate] |
| > 8.00 | CN(C)CCOC(=O)Nc1cc(Oc2cnc3nc(Nc4cc5n(n4)CCCC5(F)F)n(C)c3c2C#N)ccn1 [Example I-38, 2-(Dimethylamino)ethyl(4-((7-cyano-2-((4,4-difluoro-4,5,6,7-tetrahydropyrazolo[1,5-a]pyridin-2-yl)amino)-1-methyl-1H-imidazo[4,5-b]pyridin-6-yl)oxy)pyridin-2-yl)carbamate] |
| > 8.00 | Cn1cc(C(F)(F)F)cc(Nc2nc3ncc(Oc4ccnc(NC(=O)NC5CC5)c4)c(C#N)c3n2C)c1=O [Example I-42, 1-(4-((7-cyano-1-methyl-2-((1-methyl-2-oxo-5-(trifluoromethyl)-1,2-dihydropyridin-3-yl)amino)-1H-imidazo[4,5-b]pyridin-6-yl)oxy)pyridin-2-yl)-3-cyclopropylurea] |
| > 8.00 | COC(=O)Nc1cc(Oc2cnc3nc(Nc4cc5n(n4)CCOC5(C)C)n(C)c3c2C#N)ccn1 [Example I-43, Methyl(4-((7-cyano-2-((4,4-dimethyl-6,7-dihydro-4H-pyrazolo[5,1-c][1,4]oxazin-2-yl)amino)-1-methyl-1H-imidazo[4,5-b]pyridin-6-yl)oxy)pyridin-2-yl)carbamate] |
| > 8.00 | CN(C)C(=O)Nc1cc(Oc2cnc3nc(Nc4cc5n(n4)CCOC5(C)C)n(C)c3c2C#N)ccn1 [Example I-44, 3-(4-((7-cyano-2-((4,4-dimethyl-6,7-dihydro-4H-pyrazolo[5,1-c][1,4]oxazin-2-yl)amino)-1-methyl-1H-imidazo[4,5-b]pyridin-6-yl)oxy)pyridin-2-yl)-1,1-dimethylurea] |
| > 8.00 | Cn1c(Nc2cc3n(n2)CCOC3(C)C)nc2ncc(Oc3ccnc(NC(=O)N4CCCC4)c3)c(C#N)c21 [Example I-45, N-(4-((7-cyano-2-((4,4-dimethyl-6,7-dihydro-4H-pyrazolo[5,1-c][1,4]oxazin-2-yl)amino)-1-methyl-1H-imidazo[4,5-b]pyridin-6-yl)oxy)pyridin-2-yl)pyrrolidine-1-carboxamide] |
